These results are taken from patent US20250115620A1, “BRIDGED TRICYCLIC CARBAMOYLPYRIDONE COMPOUNDS AND USES THEREOF” (Gilead Sciences, Inc., priority 2022, published 2025).

The structures appear in SMILES notation. Like-named read-outs stand apart in the source and are kept apart here.

The test system of one data set is HIV-1 (IIIB). In words: microbe, parasite or virus in culture. The class given is cell-based. The following applies: Human immunodeficiency virus 1, IIIB, MT4, 120 h, read-out: MT4 EC50.
In the next data set the test system is pLAI reporter virus. The experiment in a line: microbe, parasite or virus in culture. The class given is cell-based, HIV. The following applies: Human immunodeficiency virus 1, MT4, 72 h.
Another data set can be described thus: in vitro. The following applies: human, uninfected MT-4 cells.
Setting [1] is: HIV-1 (IIIB) in MT-4 cells, 5 days incubation, Cell Titer Glo.

Protocol for in vitro: Compounds were serially diluted (1:3) in DMSO on 384-well polypropylene plates and further diluted 200-fold into complete RPMI media (10% FBS, 1% P/S) using the Biotek Micro Flow and Labcyte ECHO acoustic dispenser. […] Infected and uninfected MT-4 cells were further diluted in complete RPMI media and added to each plate using a Micro Flow dispenser. After 5 days incubation in a humidified and temperature controlled incubator (37° C.), Cell Titer Glo (Promega) was added to the assay plates and chemiluminescence read using an Envision plate-reader.
Assays were performed as above except uninfected MT-4 cells were added to each well containing test compound. In addition, 10 μM puromycin was added to the last column of each assay plate to assess a base level of cytotoxicity.

For the compound `[2H]C1C(OC)=NO[C@@]12CC[C@H](C)N1C[C@H]2n2cc(C(=O)NCc3c(F)cc(F)cc3F)c(=O)c(O)c2C1=O` (stereo partly drawn) [Example 83, (3′S,5S,7′R)-12′-hydroxy-3-methoxy-3′-methyl-1′,11′-dioxo-N-(2,4,6-trifluorobenzyl)-1′,4′,5′,11′-tetrahydro-3′H,4H,7′H-spiro[isoxazole-5,6′-[2,7]methanopyrido[1,2-a][1,4]diazonine]-4-d-10′-carboxamide], the 50% effective concentration (EC50) was 2.3 nM in the data set with HIV-1 (IIIB) (setting [1]), 41.1 nM with pLAI reporter virus (read-out: RLUC 50% HS EC50) and 0.3 nM with pLAI reporter virus (read-out: RLUC CCM EC50). This compound also had a 50% cytotoxic concentration (CC50) at 5 days in the data set “in vitro” of 16200 nM.
For the compound `CC1=N[C@]2(CC[C@H](C)N3C[C@H]2n2cc(C(=O)NCc4ccc(F)cc4F)c(=O)c(O)c2C3=O)ON1C` [Example 149b, (3′S,5R,7′R)—N-(2,4-difluorobenzyl)-12′-hydroxy-2,3,3′-trimethyl-1′,11′-dioxo-1′,4′,5′,11′-tetrahydro-2H,3′H,7′H-spiro[[1,2,4]oxadiazole-5,6′-[2,7]methanopyrido[1,2-a][1,4]diazonine]-10′-carboxamide], the figures for the EC50 in the data set on HIV-1 (IIIB) (setting [1]), in the data set with pLAI reporter virus (read-out: RLUC 50% HS EC50) and in the data set on pLAI reporter virus (read-out: RLUC CCM EC50) were 1.4 nM, 5.7 nM and 0.4 nM, respectively. In addition, the CC50 at 5 days in the data set “in vitro” came to 39100 nM.
Taken in the same sequence, the figures for `C[C@H]1CC[C@]2(CC(n3cccn3)=NO2)[C@H]2CN1C(=O)c1c(O)c(=O)c(C(=O)NCc3c(F)cc(F)cc3F)cn12` [Example 77, (3′S,5S,7′R)-12′-hydroxy-3′-methyl-1′,11′-dioxo-3-(1H-pyrazol-1-yl)-N-(2,4,6-trifluorobenzyl)-1′,4′,5′,11′-tetrahydro-3′H,4H,7′H-spiro[isoxazole-5,6′-[2,7]methanopyrido[1,2-a][1,4]diazonine]-10′-carboxamide] were 2.9 nM, 17.7 nM, 0.5 nM and 1480 nM.
Taken in the same sequence, the figures for `C[C@H]1CC[C@]2(CC(=O)NO2)[C@H]2CN1C(=O)c1c(O)c(=O)c(C(=O)NCc3ccc(F)cc3F)cn12` [Example 156, (3′S,5S,7′R)—N-(2,4-difluorobenzyl)-12′-hydroxy-3′-methyl-1′,3,11′-trioxo-1′,4′,5′,11′-tetrahydro-3′H,7′H-spiro[isoxazolidine-5,6′-[2,7]methanopyrido[1,2-a][1,4]diazonine]-10′-carboxamide] were 18.1 nM, 79.8 nM, 25 nM and no less than 50000 nM.
On the same counts, the results for `C[C@H]1CC[C@@]2(COCCO2)[C@H]2CN1C(=O)c1c(O)c(=O)c(C(=O)NCc3c(F)cc(F)cc3F)cn12` [Example 140, (2S,3′S,7′R)-12′-hydroxy-3′-methyl-1′,11′-dioxo-N-(2,4,6-trifluorobenzyl)-1′,4′,5′,11′-tetrahydro-3′H,7′H-spiro[[1,4]dioxane-2,6′-[2,7]methanopyrido[1,2-a][1,4]diazonine]-10′-carboxamide] are 1.8 nM, 1.7 nM, 0.1 nM and 22800 nM.
In the case of `C[C@H]1CC[C@]2(CCCN2)[C@H]2CN1C(=O)c1c(O)c(=O)c(C(=O)NCc3c(F)cc(F)cc3F)cn12` [Example 122, (2R,3′S,7′R)-12′-hydroxy-3′-methyl-1′,11′-dioxo-N-(2,4,6-trifluorobenzyl)-1′,4′,5′,11′-tetrahydro-3′H,7′H-spiro[pyrrolidine-2,6′-[2,7]methanopyrido[1,2-a][1,4]diazonine]-10′-carboxamide], the EC50 came out at 6.4 nM in the data set with HIV-1 (IIIB), 7.6 nM in the data set on pLAI reporter virus (read-out: RLUC 50% HS EC50) and 0.9 nM with pLAI reporter virus (read-out: RLUC CCM EC50). Further, in the data set “in vitro”, the midpoint of cytotoxicity, the CC50 at 5 days, lay at 38000 nM.
Turning to `C[C@H]1CC[C@@]2(ON=C3OCCC[C@@H]32)[C@H]2CN1C(=O)c1c(O)c(=O)c(C(=O)NCc3c(F)cc(F)cc3F)cn12` [Example 50, (3S,3a R,3′S,7′R)-12′-hydroxy-3′-methyl-1′,11′-dioxo-N-(2,4,6-trifluorobenzyl)-1′,3a,4,4′,5,5′,6,11′-octahydro-3′H,7′H-spiro[pyrano[2,3-c]isoxazole-3,6′-[2,7]methanopyrido[1,2-a][1,4]diazonine]-10′-carboxamide], the concentration for a half-maximal effect (EC50) in the data set on HIV-1 (IIIB) (setting [1]) stood at 0.8 nM; with pLAI reporter virus (read-out: RLUC 50% HS EC50), 10.3 nM; in the data set on pLAI reporter virus (read-out: RLUC CCM EC50), 0.5 nM. Further, the 50% cytotoxic concentration (CC50) at 5 days in “in vitro” was no less than 50000 nM.
On the same counts, the results for `C[C@H]1CC[C@@]2(CN(C)C(=O)O2)[C@H]2CN1C(=O)c1c(O)c(=O)c(C(=O)NCc3c(F)cc(F)cc3F)cn12` [Example 60, (3′S,5R,7′R)-12′-hydroxy-3,3′-dimethyl-1′,2,11′-trioxo-N-(2,4,6-trifluorobenzyl)-1′,4′,5′,11′-tetrahydro-3′H,7′H-spiro[oxazolidine-5,6′-[2,7]methanopyrido[1,2-a][1,4]diazonine]-10′-carboxamide] are 78.6 nM, 31.2 nM, 25.2 nM and no less than 50000 nM.
Taken in the same sequence, the figures for `CC1=NO[C@]2(CC[C@H](C)N3C[C@H]2n2cc(C(=O)NCc4ccc(F)cc4F)c(=O)c(O)c2C3=O)C1O` (stereo partly drawn) [Example 24, (3′S,5S,7′R)—N-(2,4-difluorobenzyl)-4,12′-dihydroxy-3,3′-dimethyl-1′,11′-dioxo-1′,4′,5′,11′-tetrahydro-3′H,4H,7′H-spiro[isoxazole-5,6′-[2,7]methanopyrido[1,2-a][1,4]diazonine]-10′-carboxamide] were 5.9 nM, 4.9 nM, 2.8 nM and no less than 50000 nM.
On the same counts, the results for `C[C@H]1CC[C@]2(CC(=O)N(Cc3nc4ccccc4n3C)O2)[C@H]2CN1C(=O)c1c(O)c(=O)c(C(=O)NCc3c(F)cc(F)cc3F)cn12` [Example 163, (3′S,5S,7′R)-12′-hydroxy-3′-methyl-2-((1-methyl-1H-benzo[d]imidazol-2-yl)methyl)-1′,3,11′-trioxo-N-(2,4,6-trifluorobenzyl)-1′,4′,5′,11′-tetrahydro-3′H,7′H-spiro[isoxazolidine-5,6′-[2,7]methanopyrido[1,2-a][1,4]diazonine]-10′-carboxamide] are 1.5 nM, 2 nM, 0.9 nM and no less than 50000 nM.
On to `C[C@H]1CC[C@@]2(CC(=O)N(C)C2)[C@H]2CN1C(=O)c1c(O)c(=O)c(C(=O)NCc3c(F)cc(F)cc3F)cn12` [Example 62, (3S,3′S,7′S)-12′-hydroxy-1,3′-dimethyl-1′,5,11′-trioxo-N-(2,4,6-trifluorobenzyl)-1′,4′,5′,11′-tetrahydro-3′H,7′H-spiro[pyrrolidine-3,6′-[2,7]methanopyrido[1,2-a][1,4]diazonine]-10′-carboxamide], for which the half-maximal effective concentration (EC50) was determined as 31.1 nM in the data set on HIV-1 (IIIB) (setting [1]), 13.4 nM in the data set on pLAI reporter virus (read-out: RLUC 50% HS EC50) and 7.8 nM in the data set with pLAI reporter virus (read-out: RLUC CCM EC50). In addition, the CC50 at 5 days in the data set “in vitro” is no less than 50000 nM.
Taken in the same sequence, the figures for `C[C@H]1CC[C@]2(CC(=O)N(Cc3ccc(F)cc3F)O2)[C@H]2CN1C(=O)c1c(O)c(=O)c(C(=O)NCc3c(F)cc(F)cc3F)cn12` [Example 110, (3′S,5S,7′R)-2-(2,4-difluorobenzyl)-12′-hydroxy-3′-methyl-1′,3,11′-trioxo-N-(2,4,6-trifluorobenzyl)-1′,4′,5′,11′-tetrahydro-3′H,7′H-spiro[isoxazolidine-5,6′-[2,7]methanopyrido[1,2-a][1,4]diazonine]-10′-carboxamide] were 1.2 nM, 2.9 nM, 0.3 nM and 12000 nM.
Taken in the same sequence, the figures for `COC1=NO[C@@]2(CC[C@H](CF)N3C[C@H]2n2cc(C(=O)NCc4ccc(F)cc4F)c(=O)c(O)c2C3=O)C1` [Example 100, (3′R,5S,7′R)—N-(2,4-difluorobenzyl)-3′-(fluoromethyl)-12′-hydroxy-3-methoxy-1′,11′-dioxo-1′,4′,5′,11′-tetrahydro-3′H,4H,7′H-spiro[isoxazole-5,6′-[2,7]methanopyrido[1,2-a][1,4]diazonine]-10′-carboxamide] were 1.5 nM, 13.5 nM, 0.3 nM and no less than 50000 nM.
Taken in the same sequence, the figures for `CC1=NO[C@@]2(CC[C@H](C)N3C[C@H]2n2cc(C(=O)NCc4c(F)cc(F)cc4F)c(=O)c(O)c2C3=O)[C@H]1O` [Example 31, (3′S,4S,5R,7′R)-4,12′-dihydroxy-3,3′-dimethyl-1′,11′-dioxo-N-(2,4,6-trifluorobenzyl)-1′,4′,5′,11′-tetrahydro-3′H,4H,7′H-spiro[isoxazole-5,6′-[2,7]methanopyrido[1,2-a][1,4]diazonine]-10′-carboxamide] were 1.4 nM, 47.2 nM, 0.3 nM and 30000 nM.
Consider `C[C@H]1CC[C@]2(CC(C(F)(F)F)=NO2)[C@H]2CN1C(=O)c1c(O)c(=O)c(C(=O)NCc3c(F)cc(F)cc3F)cn12` [Example 73, (3′S,5S,7′R)-12′-hydroxy-3′-methyl-1′,11′-dioxo-N-(2,4,6-trifluorobenzyl)-3-(trifluoromethyl)-1′,4′,5′,11′-tetrahydro-3′H,4H,7′H-spiro[isoxazole-5,6′-[2,7]methanopyrido[1,2-a][1,4]diazonine]-10′-carboxamide], for which the EC50 in the data set on HIV-1 (IIIB) (setting [1]) worked out at 1.1 nM; with pLAI reporter virus (read-out: RLUC 50% HS EC50), 65.2 nM; with pLAI reporter virus (read-out: RLUC CCM EC50) it was 0.2 nM. In addition, the CC50 at 5 days in “in vitro” was determined as 31200 nM.
Taken in the same sequence, the figures for `COC1=NO[C@@]2(CC[C@H](C)N3C[C@H]2n2cc(C(=O)NCc4ccc(F)c(Cl)c4F)c(=O)c(O)c2C3=O)C1` [Example 49, (3′S,5S,7′R)—N-(3-chloro-2,4-difluorobenzyl)-12′-hydroxy-3-methoxy-3′-methyl-1′,11′-dioxo-1′,4′,5′,11′-tetrahydro-3′H,4H,7′H-spiro[isoxazole-5,6′-[2,7]methanopyrido[1,2-a][1,4]diazonine]-10′-carboxamide] were 0.7 nM, 124 nM, 0.3 nM and 29800 nM.

What is called EC50 is the midpoint of the concentration-response curve. By CC50 is commonly meant the concentration giving 50% cytotoxicity.
